Data on 23 compounds can be found in patent US20250296938A1, “Compounds that Interact with the Ras Superfamily for the Treatment of Cancers, Inflammatory Diseases, Rasopathies, and Fibrotic Disease” (SHY Therapeutics, LLC, priority 2018, published 2025).

Assay [1] relates to MAPK phosphorylation. In words: MAPK cell-based phosphorylation assay (ELISA or Western), PANC-1. Particulars: Homo sapiens, PANC-1; for inhibition at 10 µM: 6 hours, EGF stimulation. A digest of the protocol:
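Serum-starved (0.5% FBS overnight) cells given compound at 10 μM or serial dilutions (0.3% DMSO) for 6 h at 37 °C, then 1.5 ng/mL EGF for 15 min. Phospho-MAPK read by fixed-cell ELISA (fluorescence, 595 nm) or by Western blot of lysates with anti-phospho-p44/42 (Thr202/Tyr204).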

For assay [2], the system named is MAPK phosphorylation. In words: Western MAPK cell-based phosphorylation assay, MIA PaCa-2. As to conditions: Homo sapiens; for inhibition at 10 µM: 6 hours, EGF stimulation. The method, then:
(§1) Cell lines: Human NSCLC cells NCI-H1975 and NCI-H1299, and tumor-derived pancreatic cancer cell lines Panc-1, MIA-PaCa-2, and BxPC3, were all purchased from American Type Culture Collection and grown in complete RPMI medium (BxPC3, NCI-H1975 and NCI-H1299) or DMEM-High Glucose (Panc1 and MIA-PaCa-2), supplemented with penicillin (100 U/mL), streptomycin (100 μg/mL), and 10% heat-inactivated FBS at 37° C. in a humidified incubator with 5% CO2.
(§2) Method: Cells were plated at 350000 cells/well density in a 12-well plate, allowed 3 hours to adhere to the plate, then starved in the appropriate medium in the presence of 0.5% FBS overnight. The small molecules to be tested were added to the cells in the final concentration of 10 μM in the presence of 0.3% DMSO for 6 hours incubation at 37° C. For IC50 value determination, serial dilutions of compounds were added to cells under the same conditions. Next, cells were stimulated with 1.5 ng/ml EGF for 15 minutes then cells were lysed with lysis buffer containing 1% Triton X-100, EDTA, and Halt™ Protease & Phosphatase Inhibitor Cocktail (Thermo Scientific). Protein concentration was assessed by BCA protein assay (Thermo Scientific). Phosphorylation level of MAPK was determined by western blot.
(§3) Western blot protocol: Equal amounts of protein (15-50 μg) were separated by SDS-PAGE and transferred to nitrocellulose membranes (Invitrogen by Thermo Fisher Scientific). The membrane was stained with Ponceau S Stain (Boston BioProducts) to verify uniform protein loading. Membranes were blocked with 10% milk and phosphorylation levels of MAPK were assessed by incubating overnight at 4° C. with anti-phospho-p44/42 (Thr202/Tyr204) antibody (Cell Signaling) followed by HRP-conjugated secondary antibody (Jackson Immunoresearch, West Grove, PA). Bands were incubated in Amersham ECL Prime Western Blotting Detection Reagent (GE Healthcare) and visualized using the ChemiDoc MP imaging system (Bio-Rad).

The test system of assay [3] is MAPK phosphorylation. Nature of the assay: Western MAPK cell-based phosphorylation assay, NCI H1975. Particulars: Homo sapiens; for inhibition at 10 µM: 6 hours, EGF stimulation. The method, then: as §1, §2, §3
Assay [4] relates to MIA PaCa-2 pancreatic cancer cell line. Nature of the assay: Cell proliferation assay (DAPI). Particulars: Homo sapiens, MIA PaCa-2; for inhibition at 10 µM: 2-4 days, read-out: % Inhibition of cell proliferation, MIA PaCa-2 % inh. It counts as cell-based. A digest of the protocol: (§4)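 NCI-H1975 cells in RPMI; PANC-1 and MIA PaCa-2 in DMEM-high glucose; BxPC3 in RPMI; all with 10% FBS. Compounds at 10 µM final (or serial dilutions for IC50), 0.3% DMSO, 2–4 days at 37 °C. Fixed, DAPI-stained, fluorescence read at 358/461 nm to give proliferation inhibition.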

The test system of assay [5] is NCI H1975 non-small-cell lung cancer cell line. In words: Cell proliferation assay (DAPI). The class given is cell-based. As to conditions: Homo sapiens. A digest of the protocol:
as §4

For assay [6], the system named is MAPK phosphorylation. Nature of the assay: Western MAPK cell-based phosphorylation assay, BxPC3. Particulars: Homo sapiens; for inhibition at 10 µM: BXPC-3, 10 μM, 6 hours, EGF stimulation. How it is done: as §1, §2, §3
The subject of assay [7] is MAPK phosphorylation. Nature of the assay: Western MAPK cell-based phosphorylation assay, NCI H1299. Particulars: Homo sapiens; for inhibition at 10 µM: 6 hours, EGF stimulation. The method, then:
as §1, §2, §3

The test system of assay [8] is AKT phosphorylation. Nature of the assay: Western AKT cell-based phosphorylation assay, PANC-1. Particulars: Homo sapiens, 6 hours, EGF stimulation, PANC-1. A digest of the protocol:
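PANC-1 cells, serum-starved overnight in 0.5% FBS, were treated with compound at 10 μM (0.3% DMSO) for 6 h at 37 °C and then stimulated with 1.5 ng/ml EGF for 15 min. Lysates (15–50 μg) were immunoblotted for phospho-Akt Ser473, with ECL detection.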

Assay [9] has as its system BxPC3 pancreatic cancer cell line. In words: Cell proliferation assay (DAPI). As to conditions: Homo sapiens, BXPC-3. It counts as cell-based. The essentials:
as §4

The test system of assay [10] is NCI H1299 non-small-cell lung cancer cell line. Nature of the assay: Cell proliferation assay (DAPI). The class given is cell-based. As to conditions: Homo sapiens.
The test system of assay [11] is PANC-1 pancreatic cancer cell line. Nature of the assay: Cell proliferation assay (DAPI). Particulars: Homo sapiens. It counts as cell-based. The essentials: as §4

By IC50 is commonly meant the point on the concentration scale where inhibition reaches its midpoint. As to `CO[C@H]1CCC(Nc2nc(-c3nccn3C)nc3sc(-c4ccn(C)n4)c(-c4ccccc4)c23)C1` (some centres unmarked) [drawing 474], the IC50 in assay [1] was 750 to 1000 nM; in [2], greater than 1000 nM; in assay [3] it was greater than 1000 nM.

`COCCNc1nc(-c2nccn2C)nc2sc(-c3ccccc3Cl)c(-c3ccc(OC)cc3)c12` [drawing 560]: in assay [4], the IC50 is greater than 1000 nM and the inhibition at 10 µM was 76 to 100%. Also, the IC50 in assay [5] fell in the range of 750 to 1000 nM.

Consider `COCCNc1nc(-c2nccn2C)nc2sc(-c3cccc(OC)c3Cl)c(-c3ccc(OC)cc3)c12` [drawing 420], for which the inhibition at 10 µM in assay [1] is 76 to 100%; in [6] it was 1 to 25%; in assay [2] it was 76 to 100%; in assay [3], 76 to 100%; in [7] it was 0%; in [8], 26 to 50%.

With `COCC1CCN(c2nc(-c3nccn3C)nc3sc(-c4ccn(C)n4)c(-c4ccccc4)c23)C1` (centres unmarked) [drawing 550], the IC50 in assay [9] was 750 to 1000 nM; in assay [4], 750 to 1000 nM; in assay [10] it was greater than 1000 nM; in [5], greater than 1000 nM; in assay [11] it was 500 to 749 nM. For the same compound, in [4], the inhibition at 10 µM fell in the range of 76 to 100%.

As to `COCCNc1nc(-c2nccn2C)nc2sc(-c3cccc(OC)c3Cl)c(-c3ccccc3)c12` [drawing 425], the inhibition at 10 µM in assay [1], in assay [6], in [2], in [3], in [7] and in assay [8] was 76 to 100% throughout.

Regarding `CO[C@@H]1CCC(Nc2nc(-c3nccn3C)nc3sc(-c4ccn(C)n4)c(-c4ccccc4)c23)C1` (some centres unmarked) [drawing 407], the inhibition at 10 µM is 76 to 100% in assay [1]; 0% in [6]; 0% in assay [2]; 26 to 50% in assay [3]; 26 to 50% in assay [7]; 0% in assay [8].

As for `COCCNc1nc(-c2nccn2C)nc2sc(-c3ccccc3Cl)c(-c3ccc(OC)cc3)c12` [drawing 418], the inhibition at 10 µM in assay [1] was 76 to 100%; in assay [6], 0%; in assay [2] it was 76 to 100%; in assay [3], 0%; in assay [7], 0%; in assay [8], 0%.

Consider `CO[C@H]1CCC(Nc2nc(-c3nccn3C)nc3sc(-c4ccn(C)n4)c(-c4ccccc4)c23)C1` (some centres unmarked) [drawing 406], for which the inhibition at 10 µM in assay [1], in assay [6], in [2], in assay [3], in assay [7] and in assay [8] was 76 to 100% each time.

With `COCC(C)Nc1nc(-c2nccn2C)nc2sc(-c3ccccc3Cl)c(-c3cscn3)c12` (centres unmarked) [drawing 556], the inhibition at 10 µM in assay [4] fell in the range of 76 to 100%. Besides, the IC50 in assay [10] and in assay [5] was greater than 1000 nM in each case.

As for `COC1CCN(c2nc(-c3nccn3C)nc3sc(-c4ccn(C)n4)c(-c4ccccc4)c23)C1` (centres unmarked) [drawing 545], the IC50 was greater than 1000 nM in assay [9], greater than 1000 nM in [4] and 750 to 1000 nM in [11]. Further, the inhibition at 10 µM in [4] was 76 to 100%.

In the case of `COCCNc1nc(-c2nccn2C)nc2sc(-c3cccc(OC)c3Cl)c(-c3ccccc3)c12` [drawing 472], the IC50 is 750 to 1000 nM in assay [1]; greater than 1000 nM in assay [6] (BXPC-3); 750 to 1000 nM in assay [2]; greater than 1000 nM in assay [3]; greater than 1000 nM in assay [7].

On to `COCCNc1nc(-c2nccn2C)nc2sc(-c3cccc(OC)c3Cl)c(-c3ccc(OC)cc3)c12` [drawing 562], for which the IC50 in assay [9] was in the range of 750 to 1000 nM; in assay [4], 750 to 1000 nM; in assay [10] it was 750 to 1000 nM; in assay [5], 750 to 1000 nM; in assay [11], 500 to 749 nM. Also, the inhibition at 10 µM in assay [4] was in the range of 76 to 100%.

Turning to `COCC1CCN(c2nc(-c3nccn3C)nc3sc(-c4ccn(C)n4)c(-c4ccccc4)c23)C1` (centres unmarked) [drawing 408], the inhibition at 10 µM in assay [1] was 76 to 100%; in assay [7], 26 to 50%; in assay [8] it was 0%.

Turning to `COCC(C)Nc1nc(-c2nccn2C)nc2sc(-c3cccc(OC)c3)c(-c3cscn3)c12` (centres unmarked) [drawing 558], the inhibition at 10 µM in [4] lay within 76 to 100%. The IC50 in [10] was greater than 1000 nM; in assay [5] it was greater than 1000 nM; in assay [11], 750 to 1000 nM.

Consider `COCCNc1nc(-c2nccn2C)nc2sc(-c3cccc(OC)c3)c(-c3ccc(OC)cc3)c12` [drawing 561], for which, in assay [4], the IC50 is greater than 1000 nM and the inhibition at 10 µM was in the range of 76 to 100%. The IC50 in assay [5] was greater than 1000 nM.

As for `COCCCNc1nc(-c2nccn2C)nc2sc(-c3ccn(C)n3)c(-c3ccccc3)c12` [drawing 542], the IC50 in assay [9] was 750 to 1000 nM; in [4] it was greater than 1000 nM; in assay [11] it was 750 to 1000 nM. In addition, the inhibition at 10 µM in [4] fell in the range of 76 to 100%.

Turning to `CO[C@H]1CCC(Nc2nc(-c3nccn3C)nc3sc(-c4ccn(C)n4)c(-c4ccccc4)c23)C1` (some centres unmarked) [drawing 548], the IC50 in assay [9] was in the range of 500 to 749 nM; in assay [4], 500 to 749 nM; in [10], 750 to 1000 nM; in assay [5], 500 to 749 nM; in [11] it was 500 to 749 nM. Besides, the inhibition at 10 µM in [4] is 76 to 100%.

As to `COCCNc1nc(-c2cn(C)cn2)nc2sc(-c3ccccc3Cl)c(-c3ccc(OC)cc3)c12` [drawing 564], in [4], the IC50 was greater than 1000 nM and the inhibition at 10 µM lay within 76 to 100%. The compound further showed an IC50 in assay [5] greater than 1000 nM.

On to `COCCNc1nc(-c2cn(C)cn2)nc2sc(-c3ccccc3Cl)c(-c3ccc(OC)cc3)c12` [drawing 422], for which the inhibition at 10 µM in assay [1] is 76 to 100%; in assay [6] it was 26 to 50%; in assay [2], 76 to 100%; in [3] it was 76 to 100%; in assay [7] it was 0%; in assay [8] it was 0%.

For `Cn1ccc(-c2sc3nc(-c4nccn4C)nc(NCC4CCOC4)c3c2-c2ccccc2)n1` (centres unmarked) [drawing 547], the IC50 in [9], in assay [4] and in assay [11] was greater than 1000 nM each time. Moreover, the inhibition at 10 µM in [4] lay in the range of 76 to 100%.

For the compound `COCCNc1nc(-c2nccn2C)nc2sc(-c3cccc(OC)c3Cl)c(-c3ccccc3)c12` [drawing 567], the IC50 in assay [4], in [5] and in assay [11] was 750 to 1000 nM throughout. Besides, in assay [4], the inhibition at 10 µM lay in the range of 76 to 100%.

With `COCC(C)Nc1nc(-c2nccn2C)nc2sc(-c3ccn(C)n3)c(-c3ccccc3)c12` (centres unmarked) [drawing 544], the values for the IC50 in assay [9], in assay [4] and in assay [11] were 750 to 1000 nM, greater than 1000 nM and 750 to 1000 nM, respectively. Further, the inhibition at 10 µM in [4] lay in the range of 76 to 100%.

As to `COCCNc1nc(-c2nccn2C)nc2sc(-c3cccc(OC)c3)c(-c3ccc(OC)cc3)c12` [drawing 419], the inhibition at 10 µM in assay [1] is 76 to 100%; in assay [6], 0%; in assay [2], 76 to 100%; in assay [3], 76 to 100%; in assay [7] it was 0%; in assay [8], 0%.
